Assay results: patent US10883936B2, “Analysis of viable and nonviable cells” (SageMedic Corporation, priority 2018, dated 2021)

Legend:
[1] = tested on: ovarian cancer primary tumor cells; assay: Confocal fluorescent microscopy of dyed primary tumor cells, dye combinations and addition sequences (Example 1); type: cell-based
Method: A 96 round bottom well plate was seeded with a single cell suspension of about 2,500 ovarian cancer primary tumor cells/20 μl/well at day 0. In each well, 80 μl of DMEM/2% alpha serum was added on top to the total volume of 100 μl/well. Dyes were prepared at 2-fold the desired final concentrations on the day of imaging. At day 3, 100 μL of dyeing mix was carefully added to each well to avoid disturbing the cells, to a final 1-fold concentration of dyes. Cells were incubated with dyes at 37° C. For this example, the dyes used were a membrane-permeable fluorescent dye (CYQUANT® GR, Thermo Fisher Scientific, Waltham, Mass.) and a membrane-impermeable fluorescent quenching dye (DRAQ7™, Thermo Fisher Scientific, Waltham, Mass.). The following dye combinations and sequences of dye addition were tested in triplicates, and similar results were seen among the triplicates. FIGS. 1A-1G show exemplary results of the dye combination and addition sequences, as follows.
FIG. 1A is a confocal fluorescent microscopy image of a sample prepared by incubation with the membrane-impermeable fluorescent quenching dye for 30 min followed by addition of the masking agent (Diammonium 5-[(E)-(4-acetamido-2-sulfonatophenyl)diazenyl]-6-amino-4-hydroxy-2-naphthalenesulfonate; CAS Reg. No. 302912-22-7, Thermo Fischer Scientific, Waltham, Mass.) and incubation for an additional 1 h.
FIG. 1B is a confocal fluorescent microscopy image of a sample prepared by incubation with the membrane-impermeable fluorescent quenching dye for 30 min.
FIG. 1C is a confocal fluorescent microscopy image of a sample prepared by incubation with the membrane-impermeable fluorescent quenching dye for 30 min, followed by addition of the membrane-permeable fluorescent dye and incubation for an additional 1 h.
FIG. 1D is a confocal fluorescent microscopy image of a sample prepared by incubation with the membrane-impermeable fluorescent quenching dye for 30 min, followed by addition of the membrane-permeable fluorescent dye and masking reagent and incubation for an additional 1 h.
FIG. 1E is a confocal fluorescent microscopy image of a sample prepared by incubation with the membrane-permeable fluorescent dye alone for 1 h.
FIG. 1F is a confocal fluorescent microscopy image of a sample prepared by incubation with the membrane-permeable fluorescent dye alone for 1 h, followed by addition of the membrane-impermeable fluorescent quenching dye and incubation for an additional 30 min.
FIG. 1G is a confocal fluorescent microscopy image of a sample prepared by incubation with the membrane-permeable fluorescent dye and masking reagent for 1 h, followed by addition of the membrane-impermeable fluorescent quenching dye and incubation for an additional 30 min.

[2] = tested on: ovarian cancer primary tumor cells; assay: Dynamic confocal fluorescent microscopy after adding quenching dye to cells pre-dyed with membrane-permeable dye (Example 2); type: cell-based; details: for change of fluorescence intensity over time: 0-45 min after addition of quenching dye; for dyeing of the nonviable cells: by 45 min after addition of quenching dye
Method: In order to further examine the dyeing behavior and kinetics of the membrane-impermeable fluorescent quenching dye and the membrane-permeable fluorescent dye of Example 1 when mixed together, an additional experiment was performed on day 7 of culture as follows.
On day 7, 20 μL of the membrane-permeable fluorescent dye was added at 6× concentration to each well. The cells were incubated with dye at 37° C. for 1 hour. Confocal fluorescent microscopy was performed after incubation. About 20 μL of the membrane-impermeable fluorescent quenching dye was added directly to the same well on the stage at 6× concentration without disturbing the cells.
Dynamic confocal fluorescent microscopy images were taken of the cells immediately after addition of the membrane-impermeable fluorescent quenching dye (FIG. 2A, 2B), as well as at 5 min (FIG. 2C, 2D), 20 min (FIG. 2E, 2F), 30 min (FIG. 2G, 2H) and 45 min (FIG. 2I, 2J) after addition.

[3] = FIG. 1C: quenching dye 30 min, then membrane-permeable dye, additional 1 h
[4] = FIG. 1D: quenching dye 30 min, then membrane-permeable dye and masking reagent, additional 1 h
[5] = FIG. 1F: membrane-permeable dye 1 h, then quenching dye, additional 30 min
[6] = FIG. 1G: membrane-permeable dye and masking reagent 1 h, then quenching dye, additional 30 min

Compound | signal observed by confocal fluorescent microscopy [1, 3] | signal observed by confocal fluorescent microscopy [1, 4] | signal observed by confocal fluorescent microscopy ([1]; FIG. 1E: membrane-permeable fluorescent dye alone, 1 h, 37° C.) | signal observed by confocal fluorescent microscopy [1, 5] | signal observed by confocal fluorescent microscopy [1, 6] | cells dyed by the dye alone ([1]; dye alone) | change of fluorescence intensity over time [2] | dyeing of the nonviable cells [2] | signal observed by confocal fluorescent microscopy ([1]; FIG. 1A: quenching dye 30 min, then masking agent, additional 1 h) | signal observed by confocal fluorescent microscopy ([1]; FIG. 1B: membrane-impermeable fluorescent quenching dye alone, 30 min, 37° C., day 3) | time after addition of the dye at which the brightest images (fluorescence intensity) were acquired ([2]; day 7, FIG. 2I, 2J) [min] | time after addition at which green cells becoming red is visually noticeable ([2]; day 7, membrane-permeable dye 1 hour at 37° C., then quenching dye added) [min]
CYQUANT® GR [membrane-permeable fluorescent dye] | discrete green signals | discrete green signals were observed | discrete green signals were observed | discrete green signals | discrete green signals were observed | dyed both viable and nonviable cells | significant decrease over time | negligible | – | – | – | –
CC(=O)Nc1ccc(/N=N/c2c(N)ccc3cc(S(=O)(=O)O)cc(O)c23)c(S(=O)(=O)O)c1.N.N [masking agent, Diammonium 5-[(E)-(4-acetamido-2-sulfonatophenyl)diazenyl]-6-amino-4-hydroxy-2-naphthalenesulfonate] | – | No red signal was observed | – | – | No red signal was observed | – | – | – | no signal was observed | – | – | –
DRAQ7™ | discrete red signals were observed | – | – | discrete red signals were observed | – | – | increase over time | positive | – | discrete red signals were observed | 45 | 20 to 30
